Measurements reported in patent US20240108740A1, “THERAPEUTIC COMPOSITIONS INCLUDING SPN10 AND USES THEREOF” (Stealth BioTherapeutics Inc., priority 2022, published 2024).
Residues, ends and D or L forms follow the SMILES beside them.

Legend:
[1] = system: isolated mouse liver mitochondria; test: Example 10: uptake into isolated mitochondria; assay type: in vitro ADME
Experimental: To isolate mitochondria from mouse liver, mice will be sacrificed by decapitation. The liver will be removed and rapidly placed into chilled liver homogenization medium. The liver will be finely minced using scissors and then homogenized by hand using a glass homogenizer.
The homogenate will be centrifuged for 10 minutes at 1000×g at 4° C. The supernatant will be aspirated and transferred to polycarbonate tubes and centrifuged again for 10 minutes at 3000×g, 4° C. The resulting supernatant will be removed, and the fatty lipids on the side-wall of the tube will be removed.
The pellet will be resuspended in liver homogenate medium and the homogenization repeated twice. The final purified mitochondrial pellet will be resuspended in medium. Protein concentration in the mitochondrial preparation will be determined by the Bradford procedure.
Approximately 1.5 mg mitochondria in 400 μL buffer will be incubated with [^3H] peptide conjugates; [^3H] aromatic-cationic peptides (an equivalent molar dose of aromatic-cationic peptide based on the concentration of the aromatic-cationic peptide administered in the peptide conjugate treatment group); [^3H] […] The mitochondria will then be centrifuged and the amount of radioactivity will be determined in the mitochondrial fraction and buffer fraction. […]

[2] = system: Sprague Dawley rats; test: Example 51: burn-induced hypermetabolism and UCP-1 expression in brown adipose tissue; assay type: in vivo, rat
From the text: Methods. Sprague Dawley rats will be randomly divided into the following groups; sham (S), sham with saline vehicle (SSal), sham with peptide conjugate-treatment (SC), sham with aromatic-cationic peptides (SC2), sham with SPN10(s) (SC3), sham with SPN10(s)+aromatic-cationic peptides (SC4), burn with saline vehicle (BSal), burn with peptide conjugate-treatment (BC), burn with aromatic-cationic peptides (BC2), burn with SPN10(s) (BC3) and burn with SPN10(s)+aromatic-cationic peptides (BC4). The dorsal aspect of burn subjects will be immersed into 100° C. water for 12 seconds to produce third degree 30% TBSA burns under general anesthesia. Sham burn will be produced by immersion in lukewarm water. Subjects will receive 40 mL/kg intraperitoneal saline injection for the resuscitation following the injury. A venous catheter will be placed surgically into the right jugular vein subsequent to sham or burn injury. […] Indirect calorimetry will be performed for 24 hours at 6 days after burn injury in a TSE Indirect Calorimetry System (TSE Co., Germany), and VO2, VCO2 and energy expenditure will be recorded every six minutes. Interscapullar brown adipose tissue will be collected after the indirect calorimetry, and UCP-1 expression in the brown adipose tissue will be evaluated by Western blot.

[3] = biological target: cytochrome c (Homo sapiens, UniProt P99999); test: Kinetics of cytochrome c reduction (absorbance at 550 nm); assay type: biochemical
From the text: It is hypothesized that the distribution of SPN10(s) or peptide conjugates among the protein complexes in the IMM allows it to serve as additional an relay station to facilitate ET. […] Addition of N-acetylcysteine (NAC) as a reducing agent is anticipated to result in time-dependent increase in absorbance at 550 nm.

[4] = system: wild-type (WT) mice, middle cerebral artery occlusion; test: Cerebral ischemia, no-reflow zone in the brain; assay type: in vivo, mouse; conditions: i.p. at 0, 6, 24 and 48 hours after ischemia
Experimental: Cerebral ischemia initiates a cascade of cellular and molecular events that lead to brain damage. One such event is an anatomic zone of no-reflow. Cerebral ischemia will be induced by occlusion of the right middle cerebral artery for 30 minutes. Wild-type (WT) mice will be given either saline vehicle (Veh), peptide conjugate, aromatic-cationic peptide, SPN10, SPN10 and aromatic-cationic peptide (2-5 mg/kg for the peptide conjugate and equivalent molar doses of aromatic-cationic peptide and/or SPN10 based on concentration of the aromatic-cationic peptide or SPN10 administered in the peptide conjugate group) i.p. at 0, 6, 24 and 48 hours after ischemia. Mice will be sacrificed 3 days after ischemia, and the brains sliced transversely into 6-8 sections. Sections will be photographed under ultraviolet light to identify the region of no-reflow. The areas of no-reflow in each slice will be digitized using Image J (supplier Rasband WS, Image J, National Institutes of Health, http://rsb.info.nih.gov/ij/). The areas in each slice will be multiplied by the weight of the slice and the results will be summed in order to obtain the mass of the no-reflow areas.

cytochrome c, sequence (P99999 whole entry, species assumed): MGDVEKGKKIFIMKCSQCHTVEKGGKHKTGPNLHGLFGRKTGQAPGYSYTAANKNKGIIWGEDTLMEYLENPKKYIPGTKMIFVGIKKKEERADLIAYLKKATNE

Question: `N=C(N)NCCC[C@H](NC(=O)[C@@H](N)Cc1c[nH]c2ccccc12)C(=O)N[C@@H](Cc1c[nH]c2ccccc12)C(=O)N[C@@H](CCCCN)C(N)=O` [SPN10, H-L-Trp-L-Arg-L-Trp-L-Lys-NH2] (H-WRWK-NH2) was tested. Which “concentration in mitochondria compared with buffer” value ([1]; 5-30 minutes at 37° C.) did it give?
Answer: The value was “higher than in the buffer”.

Question: And the “amount associated with the mitochondrial pellet after FCCP” value ([1]; FCCP)?
Answer: The value was “decrease the amount”.

Question: And the “UCP-1 levels in brown adipose tissue (Western blot)” value ([2]; burn groups BC, BC2, BC3, BC4 vs BSal)?
Answer: Its value is “lower than in the BSal group”.

Question: What about the “increase in VO2, VCO2, and energy expenditure after burn” value ([2]; infused for 7 days) of the same molecule?
Answer: Its value is “significantly attenuate this effect”.

Question: And the “reduction of cytochrome c by compound alone” value ([3]; 100 μM, without NAC)?
Answer: The value was “will not reduce cytochrome c”.

Question: And the “rate of NAC-induced cytochrome c reduction” value ([3]; with N-acetylcysteine (NAC))?
Answer: Its value is “dose-dependently increase”.

Question: What about the “anatomic zone of no-reflow in the brain” value [4] of the same molecule?
Answer: The value was “prevent or reduce”.

Question: And the infarct volume [4]?
Answer: The infarct volume was “significant reduction”.
